Measured values published in US20200024573A1, “CHEMICAL DIFFERENTIATION OF PLURIPOTENT STEM CELLS INTO RETINAL EPITHELIAL CELLS” (International Stem Cell Corporation, priority 2014, published 2020).

System: retinal epithelial progenitor cells
Assay: Derivation of retinal pigmented epithelium from hPSCs in 3D culture
Assay type: cell-based, human
Settings: hPSC 3D cultures, N2/B27 medium containing Chir99021 (3 μM) for 15 days, after 12 days SB431542, IWR-1, DMH-1, Y-27632
Experimental: hPSCs cells growing under feeder-free culture conditions were dissociated with Accutase and grown in suspension in Ultra-low 6 well plates, with N2/B27 medium (DMEM/F12 with GlutaMAX, 1× N2/B27 Supplement) plus SB431542 (10 μM), IWR-1 (3 μM), DMH-1 (2 μM), and Y-27632 (10 μM) for 12 days (FIGS. 1A-1C) to generate retinal epithelial progenitor cells. After 12 days, to differentiate the retinal epithelial progenitor cells into retinal pigmented epithelium into RPEs, hPSC 3D cultures were switch into N2/B27 medium containing Chir99021 (3 μM) for 15 days (FIGS. 1A-1C and 2). […] Derivation of RPEs was confirmed by immunohistochemistry for RPE specific protein expression (MITF, ZO-1, Best-1 and Melanosome) and by RT-PCR gene analysis for RPE specific gene markers ([…], BEST1 OTX2, RLBP1, RPE65 and SERINF1) (FIGS. 3 and 4). FACS analysis was performed to determine the percentage of cells positive for RPE specific proteins MITF, Mel and BEST (FIGS. 5A-5C).

In the case of `Cc1c[nH]c(-c2cnc(NCCNc3ccc(C#N)cn3)nc2-c2ccc(Cl)cc2Cl)n1` [Chir99021], the “maturation/pigmentation of retinal epithelial progenitor cells” value is reported as “promotes the maturation/pigmentation of retinal epithelial progenitor cells”.
